Series [1] has as its target Eukaryotic translation initiation factor 4E (Homo sapiens) (UniProt P06730). Description: Binding affinity to eIF4E (unknown origin) in presence of peptides at 300 nM by surface plasmon resonance analysis.
Series [2] relates to HCT-116. Description: Cytotoxicity against human HCT116 cells assessed as effect on cell membrane preincubated overnight measured after 4 hrs post stimulation by LDH release assay relative to control. The series is classed as cell-based. The settings on record: hct-116, 4 h. (In general: LDH leaks from cells whose membrane has failed.)
The subject of series [3] is GTPase KRas (Homo sapiens), P01116 [G12D]. Description: Binding affinity to KRAS G12D mutant (unknown origin) in presence of FAM-labelled peptide at 1 uM by surface plasmon resonance analysis. A general note: In SPR one partner is held on a chip, and binding of the other changes the refractive index at the surface.
Series [4] shares this test system. Description: Binding affinity to KRAS G12D mutant (unknown origin) assessed as change in melting temperature by SYPRO orange dye based thermal shift assay.
Series [5] shares this test system. Description: Binding affinity to KRAS G12D mutant (unknown origin) upto 1 uM by surface plasmon resonance analysis. As to conditions: dose microM <=1.
Series [6] can be described thus: Aggregation property of peptides assessed as stable aggregates at 10 uM by dynamic light scattering analysis. The series is classed as physicochemical.
In series [7] the target is E3 ubiquitin-protein ligase Mdm2 (Homo sapiens) (UniProt Q00987). As to the kind of experiment: Binding affinity to MDM2 (unknown origin) upto 1 uM by surface plasmon resonance analysis. As to conditions: dose microM <=1.
Series [8] has as its target Eukaryotic translation initiation factor 4E (Homo sapiens) (UniProt P06730). As to the kind of experiment: Binding affinity to eIF4E (unknown origin) in presence of Fam-labelled peptides at 1 uM by surface plasmon resonance analysis.
Series [9] relates to HCT-116. Description: Cytotoxicity against human HCT116 cells assessed as effect on cell membrane preincubated overnight measured after 4 hrs post stimulation by LDH release assay. Format: cell-based.
In series [10] the test system is GTPase KRas (Homo sapiens), P01116 [G12D]. Description: Binding affinity to KRAS G12D mutant (unknown origin) by isothermal titration calorimetry.
A further series relates to U2OS. As to the kind of experiment: Antiproliferation activity against human U2OS cells assessed as measuring ATP content at > 20 uM measured after 72 hrs by CellTiter-Glo analysis. Format: functional, cell-based. As to conditions: dose microM >20, time 72.0 hrs. In general terms: Cellular ATP, detected with luciferase, serves as a proxy for viable cell number.
In series [11] the target is E3 ubiquitin-protein ligase Mdm2 (Homo sapiens) (UniProt Q00987). As to the kind of experiment: Binding affinity to MDM2 (unknown origin) in presence of FAM-labelled peptides at 1 uM by surface plasmon resonance analysis.
The target in series [12] is Eukaryotic translation initiation factor 4E (Homo sapiens) (UniProt P06730). Description: Binding affinity to eIF4E (unknown origin) upto 1 uM by surface plasmon resonance analysis.
Series [13] has as its target T1, GTPase KRas (Homo sapiens, UniProt P01116). Description: Inhibition of KRAS in human U2OS cells assessed as inhibition in phosphorylation of ERK at 20 uM incubated for 15 mins by Western blot analysis. Format: cell-based.
Target sequence in this assay (P01116 whole entry, looked up): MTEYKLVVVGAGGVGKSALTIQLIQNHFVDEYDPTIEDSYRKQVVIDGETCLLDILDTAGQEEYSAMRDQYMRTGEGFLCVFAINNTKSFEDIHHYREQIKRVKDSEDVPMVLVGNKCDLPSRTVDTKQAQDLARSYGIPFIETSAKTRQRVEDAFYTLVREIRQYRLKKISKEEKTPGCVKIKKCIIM
Series [14] deals with GTPase KRas (Homo sapiens), P01116 [G12V]. As to the kind of experiment: Binding affinity to KRAS G12V mutant (unknown origin) by isothermal titration calorimetry.
Another series concerns A549. Description: Antiproliferation activity against human A549 cells assessed as measuring ATP content at > 20 uM measured after 72 hrs by CellTiter-Glo analysis. Format: functional, cell-based. The settings on record: dose microM >20, time 72.0 hrs.
The test system of series [15] is GTPase KRas (Homo sapiens), P01116 [G12D]. As to the kind of experiment: (§1) Binding affinity to KRAS G12D mutant (unknown origin) using FAM-labelled peptide as substrate in absence of Tween20 by fluorescence polarization assay.
Series [16] deals with Eukaryotic translation initiation factor 4E (Homo sapiens) (UniProt P06730). As to the kind of experiment: Binding affinity to eIF4E (unknown origin) using FAM-labelled peptide as substrate in presence of Tween20 by fluorescence polarization assay.
Series [17] has the same target. As to the kind of experiment: Binding affinity to eIF4E (unknown origin) using FAM-labelled peptide as substrate in absence of Tween20 by fluorescence polarization assay.
A short description of series [18]: Aggregation property of FAM-labelled peptides assessed as diameter of aggregate size at 10 uM by dynamic light scattering analysis. The series is classed as physicochemical.
For series [19], the target named is E3 ubiquitin-protein ligase Mdm2 (Homo sapiens) (UniProt Q00987). As to the kind of experiment: Binding affinity to MDM2 (unknown origin) using FAM-labelled peptide as substrate in presence of Tween20 by fluorescence polarization assay.
The target is the same in series [20]. As to the kind of experiment: Binding affinity to MDM2 (unknown origin) using FAM-labelled peptide as substrate in absence of Tween20 by fluorescence polarization assay.
For another series, the species on record is Homo sapiens. As to the kind of experiment: Binding affinity to KRAS Q61H mutant (unknown origin) using FAM-labelled peptide as substrate in presence of Tween20 by fluorescence polarization assay.
Series [21] deals with GTPase KRas (Homo sapiens, UniProt P01116, G12D). Described as §1.
For series [22], the target named is T1, GTPase KRas. Description: Binding affinity to wild type KRAS (unknown origin) using FAM-labelled peptide as substrate in absence of Tween20 by fluorescence polarization assay.
Target sequence in this assay (P01116 whole entry): as the sequence (P01116 whole entry, looked up) above
The target in series [23] is T1, GTPase KRas. As to the kind of experiment: Binding affinity to wild type KRAS (unknown origin) using FAM-labelled peptide as substrate in presence of Tween20 by fluorescence polarization assay.
Target sequence in this assay (P01116 whole entry, looked up): as above

The structures appear in SMILES notation. pEC50, pKd: −log10 of the molar value. Activity calls are given as the source filed them. The rule behind the calls is not given here. Where a SMILES comes first, the peptide text is derived from it. Bridges are numbered along the chain shown (N, C = ends). [ ]: non-standard residue; d: D form. Phe(4-F) = N[C@@H](Cc1ccc(F)cc1)C(=O)O; d2Nal = N[C@H](Cc1ccc2ccccc2c1)C(=O)O; S5 = C=CCCC[C@](C)(N)C(=O)O

Chain of E3 ubiquitin-protein ligase Mdm2 (Homo sapiens) (Q00987 whole entry, looked up): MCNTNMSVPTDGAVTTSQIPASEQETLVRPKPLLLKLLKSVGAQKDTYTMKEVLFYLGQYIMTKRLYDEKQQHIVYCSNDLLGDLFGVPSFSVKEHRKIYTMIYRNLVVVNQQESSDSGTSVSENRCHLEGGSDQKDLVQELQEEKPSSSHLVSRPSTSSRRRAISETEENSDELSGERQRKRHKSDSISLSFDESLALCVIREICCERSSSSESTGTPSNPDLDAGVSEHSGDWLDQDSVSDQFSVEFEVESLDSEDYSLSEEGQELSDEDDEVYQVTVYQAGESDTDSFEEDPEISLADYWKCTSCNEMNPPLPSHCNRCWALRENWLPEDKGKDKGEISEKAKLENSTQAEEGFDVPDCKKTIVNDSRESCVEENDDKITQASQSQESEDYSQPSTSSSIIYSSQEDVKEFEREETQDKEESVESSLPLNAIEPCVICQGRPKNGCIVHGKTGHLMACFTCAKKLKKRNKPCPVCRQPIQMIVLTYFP
Chain of Eukaryotic translation initiation factor 4E (Homo sapiens) (P06730 whole entry): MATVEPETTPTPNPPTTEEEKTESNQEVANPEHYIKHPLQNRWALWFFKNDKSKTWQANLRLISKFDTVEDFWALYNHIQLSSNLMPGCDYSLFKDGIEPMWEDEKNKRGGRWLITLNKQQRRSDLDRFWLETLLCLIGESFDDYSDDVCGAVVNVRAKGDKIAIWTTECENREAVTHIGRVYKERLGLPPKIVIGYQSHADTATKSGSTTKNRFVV
Chain of GTPase KRas (Homo sapiens), P01116 [G12D] (P01116 whole entry G12D, looked up): as the sequence (P01116 whole entry, looked up) above, with G12D counted along it
Chain of GTPase KRas (Homo sapiens), P01116 [G12V] (P01116 whole entry G12V): as the sequence (P01116 whole entry, looked up) above, with G12V counted along it
Chain of GTPase KRas (Homo sapiens, UniProt P01116, G12D) (P01116 whole entry G12D): as the sequence (P01116 whole entry, looked up) above, with G12D counted along it

In the case of `CC(=O)N[C@@H](CCCCN)C(=O)N[C@@H](CCCCN)C(=O)N[C@@H](CCCNC(=N)N)C(=O)N[C@@H](Cc1ccc(O)cc1)C(=O)N[C@@H](CO)C(=O)N[C@@H](CCCNC(=N)N)C(=O)NC(C)(C)C(=O)N[C@@H](CCC(N)=O)C(=O)N[C@@H](CC(C)C)C(=O)N[C@@H](CC(C)C)C(=O)NC(C)(C)C(=O)N[C@@H](CC(C)C)C(N)=O`, the outcome in [1] was Active. Also, in the series with HCT-116 [2], the Activity is reported as less than 10%. Besides, the result in series [3] was inactive.
Take `C[C@H]1NC(=O)[C@H](CCCNC(=N)N)NC(=O)[C@H](Cc2c[nH]c3ccccc23)NC(=O)[C@H](CCCNC(=N)N)NC(=O)[C@H](Cc2ccc(F)cc2)NC(=O)[C@H](CCCNC(=N)N)NC(=O)[C@@H](Cc2ccc3ccccc3c2)NC(=O)[C@H](CCCNC(=N)N)NC(=O)[C@H](CCCNC(=N)N)NC(=O)[C@H](CCC(N)=O)NC1=O` (cyclo(RR[d2Nal]R[Phe(4-F)]RWR[dA]Q)): in the series on HCT-116 [2], the Activity is less than 10%.
Usually ΔTm stands for the shift of the melting midpoint relative to a reference. In the case of `CCCC[C@H]1NC(=O)[C@@H](Cc2ccc(F)cc2)NC(=O)[C@H](CCCNC(=N)N)NC(=O)[C@@H](Cc2ccc3ccccc3c2)NC(=O)[C@H](CCCNC(=N)N)NC(=O)[C@H](CCCNC(=N)N)NC(=O)[C@@H](CCCNC(=N)N)NC(=O)[C@@H](C)NC(=O)[C@H](C(C)(C)C)NC(=O)[C@H](Cc2c[nH]c3ccccc23)NC(=O)[C@H](CCC(N)=O)NC1=O`, in series [4], the shift in melting temperature (ΔTm) is -5.9 °C.
The pEC50 is −log10 of the EC50, conventionally taken in molar units. As to `CCCC[C@H]1NC(=O)[C@H](Cc2ccc(F)cc2)NC(=O)[C@H](CCCNC(=N)N)NC(=O)[C@@H](Cc2ccc3ccccc3c2)NC(=O)[C@H](CCCNC(=N)N)NC(=O)[C@H](CCCNC(=N)N)NC(=O)[C@H](CCCNC(=N)N)NC(=O)[C@H](C)NC(=O)[C@H]([C@@H](C)O)NC(=O)[C@@H](Cc2c[nH]c3ccccc23)NC(=O)[C@@H](CCC(N)=O)NC1=O`, the outcome (in series [5]; in series [7]; in series [10]; in series [12]; at GTPase KRas [13]; in [14]) was inactive. Further, the Activity result in [6] is listed as “Not Active”. Further, the outcome (in [8]; in the series with U2OS; in series [11]; in the series on A549) was Active. Moreover, in the series on HCT-116 [9], the pEC50 was 4.52.
`CC[C@H](C)[C@H](NC(=O)[C@]1(C)CCC/C=C/CCC[C@](C)(NC(=O)CNC(=O)[C@H](Cc2ccccc2)NC(=O)[C@H](Cc2ccccc2)NC(=O)[C@H](CCCNC(=N)N)NC(=O)[C@H](CCCNC(=N)N)NC(C)=O)C(=O)N[C@@H](Cc2ccc(O)cc2)C(=O)N[C@@H](CC(C)C)C(=O)N[C@@H]([C@@H](C)O)C(=O)N1)C(=O)N[C@@H](CC(C)C)C(=O)N[C@@H](CCCCN)C(=O)N[C@H](C(=O)N[C@@H](CCC(=O)O)C(=O)N[C@@H](CCC(=O)O)C(=O)NCC(=O)N[C@@H](CC(N)=O)C(N)=O)[C@@H](C)O`: the Activity result in [6] is “Not Active”; in the series on HCT-116 [2], less than 10%; in series [18], 1200 nm. For the same compound, the result in series [15], in series [17] and in [20] was Active. Moreover, the result in [16] and in series [19] was inactive.
As for `C=CCCC[C@](C)(NC(=O)[C@H](CC(N)=O)NC(=O)[C@@H](NC(=O)[C@H](CC(C)C)NC(=O)[C@](C)(CCCC=C)NC(=O)[C@@H](NC(=O)CNC(=O)[C@H](Cc1ccccc1)NC(=O)[C@H](Cc1ccccc1)NC(=O)[C@H](CCCNC(=N)N)NC(=O)[C@H](CCCNC(=N)N)NC(C)=O)[C@@H](C)CC)[C@@H](C)O)C(=O)N[C@@H](CC(C)C)C(=O)N[C@@H](CCCCN)C(=O)N[C@H](C(=O)N[C@@H](CCC(=O)O)C(=O)N[C@@H](CCC(=O)O)C(=O)NCC(=O)N[C@@H](CC(N)=O)C(N)=O)[C@@H](C)O`, the pEC50 in the series with HCT-116 [9] is 5.10.
With `CC(=O)N[C@@H](CC(C)C)C(=O)N[C@H](C(=O)N[C@@H](Cc1ccccc1)C(=O)N[C@]1(C)CCCCCC/C=C/CCC[C@@](C)(C(=O)N[C@@H](CO)C(=O)N[C@@H](C)C(=O)N[C@@H](C)C(N)=O)NC(=O)[C@H](CC2CCC2)NC(=O)[C@H](CC(C)C)NC(=O)[C@H](CCC(N)=O)NC(=O)[C@H](Cc2c[nH]c3ccccc23)NC(=O)[C@H](Cc2ccc(O)cc2)NC(=O)[C@H](CCC(=O)O)NC1=O)[C@@H](C)O`, in the series with HCT-116 [2], the Activity is recorded as less than 10%.
The term pKd denotes the negative decadic logarithm of the Kd, by convention in mol/L. For `CC[C@H](C)[C@H](NC(=O)CNC(=O)[C@H](Cc1ccccc1)NC(=O)[C@H](Cc1ccccc1)NC(=O)[C@H](CCCNC(=N)N)NC(=O)[C@H](CCCNC(=N)N)NC(C)=O)C(=O)N[C@@]1(C)CCC/C=C/CCC[C@@](C)(C(=O)N[C@@H](CC(C)C)C(=O)N[C@@H](CCCCN)C(=O)N[C@H](C(=O)N[C@@H](CCC(=O)O)C(=O)N[C@@H](CCC(=O)O)C(=O)NCC(=O)N[C@@H](CC(N)=O)C(N)=O)[C@@H](C)O)NC(=O)[C@H](CC(N)=O)NC(=O)[C@H]([C@@H](C)O)NC(=O)[C@H](CC(C)C)NC1=O`, the result (in series [5]; in the series listed under Homo sapiens; in [7]; in series [3]; in series [10]; on GTPase KRas [23]) was inactive. Moreover, the result in [12] was inactive. Also, the Activity entry is given as “Not Active” in series [6] and 350 nm in [18]. The pKd at GTPase KRas [21] and on GTPase KRas [22] was 6.37 in each case. Also, the result (in [8]; in series [17]; in the series with U2OS; in series [20]; in series [11]; in the series with A549) was Active. Further, in the series on HCT-116 [9], the negative logarithm of the EC50 (pEC50) is 5.00. Besides, the inhibition result at GTPase KRas [13] is “Active”.
Regarding `CC(=O)NCCCC[C@H](N)C(=O)N[C@@H](CCCCN)C(=O)N[C@@H](CCCNC(=N)N)C(=O)N[C@@H](Cc1ccc(O)cc1)C(=O)N[C@@H](CO)C(=O)N[C@@H](CCCNC(=N)N)C(=O)N[C@@]1(C)CCC/C=C/CCC[C@@](C)(C(=O)N[C@@H](Cc2ccccc2)C(N)=O)NC(=O)[C@H](C(C)C)NC(=O)[C@H](C(C)C)NC(=O)[C@H](Cc2ccccc2)NC1=O` (H-K(Ac)KRYSR[S5]FVV[S5]F-NH2; staple (E) 7-11), in the series on HCT-116 [9], the negative logarithm of the EC50 (pEC50) is 4.70.
`CC(=O)N[C@@H](CC(C)C)C(=O)N[C@H](C(=O)N[C@@H](Cc1ccccc1)C(=O)N[C@]1(C)CCCCCC/C=C/CCC[C@@](C)(C(=O)N[C@H](CO)C(=O)N[C@H](C)C(=O)N[C@H](C)C(N)=O)NC(=O)[C@@H](CC2CCC2)NC(=O)[C@H](CC(C)C)NC(=O)[C@H](CCC(N)=O)NC(=O)[C@H](Cc2c[nH]c3ccccc23)NC(=O)[C@H](Cc2ccc(O)cc2)NC(=O)[C@H](CCC(=O)O)NC1=O)[C@@H](C)O`: the result in series [3] was inactive.

The values above are taken from ChEMBL document CHEMBL4725447, “De-risking Drug Discovery of Intracellular Targeting Peptides: Screening Strategies to Eliminate False-Positive Hits” (ACS Med Chem Lett, 2020).
